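Five compound concentrations were applied to cells in 96-well plates for 48 hours; endpoints were derived by simple linear interpolation of the resulting dose-response curve. GI50: concentration for 50% inhibition of growth.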 Active and inactive are the calls of the source. Rule as the data show it: active = GI50 up to about 1.1 µM and inactive = higher.
Columns and labels:
Assay in all cases: NCI-60 cell line screen, 48 h
[1] = test system: M14
[2] = test system: OVCAR-5
[3] = test system: SK-OV-3
[4] = test system: IGROV-1
[5] = test system: Hs-578T
[6] = test system: NCI-H460
[7] = test system: UACC-62
[8] = test system: OVCAR-4
[9] = test system: K562
[10] = test system: SF-539
[11] = test system: DU-145
[12] = test system: NCI/ADR-RES
[13] = test system: PC-3
[14] = test system: SF-268
[15] = test system: HOP-62
[16] = test system: SK-MEL-5
[17] = test system: KM12
[18] = test system: EKVX
[19] = test system: SK-MEL-28
[20] = test system: CAKI-1

Row | Structure (SMILES) | GI50 [1] | GI50 [2] | GI50 [3] | GI50 [4] | GI50 [5] | GI50 [6] | GI50 [7] | GI50 [8] | GI50 [9] | GI50 [10] | GI50 [11] | GI50 [12] | GI50 [13] | GI50 [14] | GI50 [15] | GI50 [16] | GI50 [17] | GI50 [18] | GI50 [19] | GI50 [20]
1 | CC(C)(C)OC(=O)NC1CC2(C=C(Br)C(=O)C(Br)=C2)OC1=O (configuration not stated) | 7.14 µM (inactive) | 18.3 µM (inactive) | 17.3 µM (inactive) | 16.4 µM (inactive) | 22 µM (inactive) | 18.4 µM (inactive) | 17.6 µM (inactive) | 9.84 µM (inactive) | 2.56 µM (inactive) | 18.7 µM (inactive) | 13 µM (inactive) | 14.8 µM (inactive) | 13.9 µM (inactive) | 17.4 µM (inactive) | 18.7 µM (inactive) | 16.4 µM (inactive) | 20.9 µM (inactive) | 12.9 µM (inactive) | 21.1 µM (inactive) | 3.48 µM (inactive)
2 | C=CCCCCCCCCCOC1C=CC(OC(C)=O)C(COC(C)=O)O1 (configuration not stated) | 30.1 µM (inactive) | > 100 µM (inactive) | > 100 µM (inactive) | 27 µM (inactive) | 28.9 µM (inactive) | 38.7 µM (inactive) | 46.8 µM (inactive) | 45.8 µM (inactive) | 1.99 µM (inactive) | > 100 µM (inactive) | > 100 µM (inactive) | 41.4 µM (inactive) | 32 µM (inactive) | 37.3 µM (inactive) | 83.8 µM (inactive) | 31.6 µM (inactive) | 26.9 µM (inactive) | 47.6 µM (inactive) | > 100 µM (inactive) | 80.5 µM (inactive)
3 | O=c1c2ccccc2nc(Nc2cccc(Cl)c2)n1/N=C/C=C/c1ccccc1 | > 100 µM (inactive) | > 100 µM (inactive) | 70 µM (inactive) | > 100 µM (inactive) | 62.8 µM (inactive) | 48.2 µM (inactive) | 41.3 µM (inactive) | 45.5 µM (inactive) | > 100 µM (inactive) | 35.7 µM (inactive) | > 100 µM (inactive) | 63.5 µM (inactive) | 33.7 µM (inactive) | 53 µM (inactive) | 85.5 µM (inactive) | 89.3 µM (inactive) | > 100 µM (inactive) | 80.7 µM (inactive) | > 100 µM (inactive) | > 100 µM (inactive)
4 | c1csc(-c2csc(-c3cccs3)c2)c1 | 58.1 µM (inactive) | > 100 µM (inactive) | 95.9 µM (inactive) | 78.5 µM (inactive) | 51.3 µM (inactive) | 88.3 µM (inactive) | 20.8 µM (inactive) | 77.4 µM (inactive) | – | > 100 µM (inactive) | > 100 µM (inactive) | > 100 µM (inactive) | 29.7 µM (inactive) | 84.5 µM (inactive) | 63.1 µM (inactive) | 18.7 µM (inactive) | 28.9 µM (inactive) | 39.8 µM (inactive) | > 100 µM (inactive) | 84.3 µM (inactive)
5 | COc1ccc(SC(C)(SC)c2ccccn2)c(OC)n1 (configuration not stated) | > 100 µM (inactive) | > 100 µM (inactive) | – | > 100 µM (inactive) | 91.2 µM (inactive) | 73.1 µM (inactive) | 87.3 µM (inactive) | 83.4 µM (inactive) | 51.4 µM (inactive) | > 100 µM (inactive) | > 100 µM (inactive) | 53.6 µM (inactive) | 76.2 µM (inactive) | > 100 µM (inactive) | > 100 µM (inactive) | 37.4 µM (inactive) | 79.1 µM (inactive) | > 100 µM (inactive) | > 100 µM (inactive) | > 100 µM (inactive)
6 | CC(C)(C)N/N=C(\C(=O)Nc1ccc([N+](=O)[O-])cc1[N+](=O)[O-])c1nc2ccc([N+](=O)[O-])cc2nc1O | > 100 µM (inactive) | > 100 µM (inactive) | > 100 µM (inactive) | > 100 µM (inactive) | 82.6 µM (inactive) | 31.8 µM (inactive) | > 100 µM (inactive) | 33.3 µM (inactive) | 37 µM (inactive) | > 100 µM (inactive) | > 100 µM (inactive) | > 100 µM (inactive) | 96.4 µM (inactive) | > 100 µM (inactive) | – | 13.6 µM (inactive) | 34.4 µM (inactive) | > 100 µM (inactive) | > 100 µM (inactive) | > 100 µM (inactive)
7 | O=[N+]([O-])c1ccc2c3c1[C@H]1O[C@H]1c1cccc(c1-3)[C@@H]1O[C@H]21 | 1.71 µM (inactive) | 2.37 µM (inactive) | 4.22 µM (inactive) | – | 3.15 µM (inactive) | – | 1.86 µM (inactive) | 2.12 µM (inactive) | 0.526 µM (active) | 2.3 µM (inactive) | 2.33 µM (inactive) | 2.41 µM (inactive) | 2.3 µM (inactive) | 1.98 µM (inactive) | 2.9 µM (inactive) | 3.02 µM (inactive) | 2.35 µM (inactive) | 2.03 µM (inactive) | 2.28 µM (inactive) | 1.99 µM (inactive)
8 | C=C1C[C@@H]2O[C@H]3[C@H]4[C@@H](C[C@@H](C)[C@@H](OC(C)=O)[C@H]42)[C@@H](C)CO[C@@]3(C)[C@H](OC(C)=O)C[C@H]1O | > 100 µM (inactive) | > 100 µM (inactive) | > 100 µM (inactive) | > 100 µM (inactive) | > 100 µM (inactive) | 70.8 µM (inactive) | > 100 µM (inactive) | > 100 µM (inactive) | 25.7 µM (inactive) | > 100 µM (inactive) | > 100 µM (inactive) | > 100 µM (inactive) | 95.9 µM (inactive) | > 100 µM (inactive) | – | > 100 µM (inactive) | > 100 µM (inactive) | > 100 µM (inactive) | > 100 µM (inactive) | > 100 µM (inactive)
9 | O=C1C=CC(=O)C(CNc2ccc(C(=O)OC34CC5CC(CC(C5)C3)C4)cc2)=C1Br | 13.4 µM (inactive) | 16.7 µM (inactive) | 17.3 µM (inactive) | 3.73 µM (inactive) | 6.35 µM (inactive) | 11.5 µM (inactive) | 7.38 µM (inactive) | 5.19 µM (inactive) | 5.58 µM (inactive) | 1.59 µM (inactive) | 23.6 µM (inactive) | 3.82 µM (inactive) | 4.76 µM (inactive) | 12.2 µM (inactive) | 19 µM (inactive) | 9.31 µM (inactive) | 5.62 µM (inactive) | 6.46 µM (inactive) | – | 3.52 µM (inactive)
10 | CC1=NN(c2nc(N)nc(/C(C#N)=C\c3csc([N+](=O)[O-])c3)n2)C(C)(C)C1 | > 100 µM (inactive) | 34.7 µM (inactive) | 42.2 µM (inactive) | 49.3 µM (inactive) | 22.5 µM (inactive) | 32.7 µM (inactive) | – | 21.9 µM (inactive) | 39.4 µM (inactive) | 27.2 µM (inactive) | 33.4 µM (inactive) | 27 µM (inactive) | 20.6 µM (inactive) | 21.8 µM (inactive) | 26.6 µM (inactive) | 30.5 µM (inactive) | 57.9 µM (inactive) | 30.2 µM (inactive) | 59 µM (inactive) | 44.5 µM (inactive)
11 | COC(=O)C1=C(O)C(C(=O)OC)[C@]2(O)[C@H](C(=O)OC)[C@H]1C[C@@H](c1c(Cl)cccc1Cl)[C@H]2C(=O)OC (some centres not stated) | 1.55 µM (inactive) | – | 3.96 µM (inactive) | 2.16 µM (inactive) | 3.35 µM (inactive) | 2.31 µM (inactive) | 2.02 µM (inactive) | 3.6 µM (inactive) | 2.05 µM (inactive) | 1.93 µM (inactive) | 2.68 µM (inactive) | 2.04 µM (inactive) | 1.99 µM (inactive) | 3.13 µM (inactive) | 3.07 µM (inactive) | 1.66 µM (inactive) | 2.55 µM (inactive) | 4.25 µM (inactive) | 2.24 µM (inactive) | 2.83 µM (inactive)
12 | COc1ccc(/C=C2\CN(C)C/C(=C\c3ccc(OC)cc3)C2=O)cc1 | > 100 µM (inactive) | > 100 µM (inactive) | – | 52.2 µM (inactive) | > 100 µM (inactive) | > 100 µM (inactive) | > 100 µM (inactive) | > 100 µM (inactive) | > 100 µM (inactive) | > 100 µM (inactive) | > 100 µM (inactive) | > 100 µM (inactive) | > 100 µM (inactive) | > 100 µM (inactive) | > 100 µM (inactive) | 32.8 µM (inactive) | > 100 µM (inactive) | > 100 µM (inactive) | > 100 µM (inactive) | > 100 µM (inactive)
13 | COC1=Nc2ccccc2S(=O)(=O)C=C1 | 7.64 µM (inactive) | 16.9 µM (inactive) | 45.7 µM (inactive) | 13.7 µM (inactive) | 18.7 µM (inactive) | 19 µM (inactive) | 17.9 µM (inactive) | 10.1 µM (inactive) | – | 16.7 µM (inactive) | 16.8 µM (inactive) | 13.1 µM (inactive) | 15 µM (inactive) | 20.8 µM (inactive) | 43.3 µM (inactive) | 11.4 µM (inactive) | 14.8 µM (inactive) | 7.69 µM (inactive) | 7.01 µM (inactive) | 13.3 µM (inactive)
14 | COC(=O)c1c(O)ccc2c1c1c(n2Cc2ccc(OC)cc2)C(=O)c2ccccc2C1=O | 10.7 µM (inactive) | 25.4 µM (inactive) | 15.6 µM (inactive) | 6.21 µM (inactive) | 13.9 µM (inactive) | 3.75 µM (inactive) | – | 12.3 µM (inactive) | 3.28 µM (inactive) | 14.4 µM (inactive) | 18.2 µM (inactive) | 7.21 µM (inactive) | 5.2 µM (inactive) | 12.4 µM (inactive) | 16.3 µM (inactive) | – | 15.6 µM (inactive) | 35.3 µM (inactive) | 17.9 µM (inactive) | 29.4 µM (inactive)
